Biological target: human Nav1.8 (Homo sapiens, UniProt Q9Y5Y9)
Assay: whole-cell manual patch clamp dose-response, […] °C
Format: cell-based

human Nav1.8, sequence (Q9Y5Y9 whole entry): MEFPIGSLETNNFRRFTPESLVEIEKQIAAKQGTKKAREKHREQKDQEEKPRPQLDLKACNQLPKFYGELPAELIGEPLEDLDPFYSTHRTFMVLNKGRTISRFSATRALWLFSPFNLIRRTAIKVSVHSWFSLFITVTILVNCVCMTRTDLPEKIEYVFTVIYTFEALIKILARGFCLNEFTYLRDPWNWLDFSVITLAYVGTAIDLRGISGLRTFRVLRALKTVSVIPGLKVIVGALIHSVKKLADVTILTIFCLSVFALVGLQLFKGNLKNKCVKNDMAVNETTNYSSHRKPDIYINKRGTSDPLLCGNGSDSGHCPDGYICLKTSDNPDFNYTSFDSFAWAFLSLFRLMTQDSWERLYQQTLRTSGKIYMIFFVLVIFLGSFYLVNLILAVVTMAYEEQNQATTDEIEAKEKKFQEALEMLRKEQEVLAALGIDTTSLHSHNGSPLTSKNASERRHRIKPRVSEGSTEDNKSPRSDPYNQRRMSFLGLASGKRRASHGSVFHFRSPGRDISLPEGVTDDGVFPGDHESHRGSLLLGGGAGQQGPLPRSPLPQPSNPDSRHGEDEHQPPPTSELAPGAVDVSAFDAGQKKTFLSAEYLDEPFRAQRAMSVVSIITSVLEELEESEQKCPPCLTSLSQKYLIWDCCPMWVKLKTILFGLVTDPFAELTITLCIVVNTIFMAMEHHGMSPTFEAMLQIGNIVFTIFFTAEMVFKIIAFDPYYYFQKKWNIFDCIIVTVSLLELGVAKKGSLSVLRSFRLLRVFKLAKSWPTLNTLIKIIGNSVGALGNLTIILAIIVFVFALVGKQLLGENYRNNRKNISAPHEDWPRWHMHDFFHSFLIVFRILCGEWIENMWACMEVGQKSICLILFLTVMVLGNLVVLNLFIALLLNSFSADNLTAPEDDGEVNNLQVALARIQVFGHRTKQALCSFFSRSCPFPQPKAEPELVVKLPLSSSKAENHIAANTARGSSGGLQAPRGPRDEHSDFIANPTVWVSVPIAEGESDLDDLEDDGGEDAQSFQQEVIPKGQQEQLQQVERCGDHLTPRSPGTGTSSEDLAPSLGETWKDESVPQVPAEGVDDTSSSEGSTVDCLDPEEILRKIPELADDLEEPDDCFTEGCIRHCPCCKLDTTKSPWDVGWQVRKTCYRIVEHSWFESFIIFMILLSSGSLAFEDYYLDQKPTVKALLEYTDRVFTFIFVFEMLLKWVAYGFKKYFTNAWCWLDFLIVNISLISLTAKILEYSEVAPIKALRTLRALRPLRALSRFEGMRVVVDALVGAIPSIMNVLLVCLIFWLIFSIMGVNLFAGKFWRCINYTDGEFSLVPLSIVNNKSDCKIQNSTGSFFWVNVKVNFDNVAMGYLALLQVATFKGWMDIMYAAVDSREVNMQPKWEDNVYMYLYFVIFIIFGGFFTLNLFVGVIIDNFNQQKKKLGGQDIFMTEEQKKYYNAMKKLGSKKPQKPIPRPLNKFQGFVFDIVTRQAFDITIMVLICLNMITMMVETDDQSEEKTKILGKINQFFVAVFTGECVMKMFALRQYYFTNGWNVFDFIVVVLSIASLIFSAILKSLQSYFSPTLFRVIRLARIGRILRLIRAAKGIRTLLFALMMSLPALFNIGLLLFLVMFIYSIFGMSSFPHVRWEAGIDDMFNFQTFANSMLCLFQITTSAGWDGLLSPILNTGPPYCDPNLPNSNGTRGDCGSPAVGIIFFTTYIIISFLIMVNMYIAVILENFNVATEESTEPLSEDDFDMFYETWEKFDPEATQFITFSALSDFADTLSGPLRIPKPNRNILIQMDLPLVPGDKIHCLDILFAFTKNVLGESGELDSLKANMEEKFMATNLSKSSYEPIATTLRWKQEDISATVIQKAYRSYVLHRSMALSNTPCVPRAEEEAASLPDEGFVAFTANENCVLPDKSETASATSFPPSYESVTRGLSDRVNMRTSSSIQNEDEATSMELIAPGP
human Nav1.8, sequence (Q9NY72 23-215 partner): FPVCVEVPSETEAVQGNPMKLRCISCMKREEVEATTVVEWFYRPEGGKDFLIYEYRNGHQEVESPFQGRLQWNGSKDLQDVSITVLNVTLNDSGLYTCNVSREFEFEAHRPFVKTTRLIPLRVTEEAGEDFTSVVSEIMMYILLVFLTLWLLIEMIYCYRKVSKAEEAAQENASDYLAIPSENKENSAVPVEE

- Kd: 0.072 nM
Compound: COc1c([C@H]2[C@H](C(=O)Nc3ccnc(C(N)=O)c3)O[C@@](C)(C(F)(F)F)[C@H]2C)ccc(F)c1F [VX-548]
